Data set [1] addresses Macrophage-stimulating protein receptor (Homo sapiens, UniProt Q04912). The experiment in a line: Inhibition of recombinant human GST-tagged RON expressed in baculovirus system at 1 uM using biotin as substrate preincubated for 5 mins followed by substrate addition and measured after 30 to 60 mins in presence of ATP by HTRF assay relative to control. On the technique in general: Time-resolved FRET reads energy transfer from a long-lived donor to a nearby acceptor.

The target of data set [2] is CDK2/Cyclin A2 (Homo sapiens) (UniProt P24941+P20248). The experiment in a line: Inhibition of recombinant full length human His-tagged CDK2/Cyclin A expressed in baculovirus expression system at 1 uM using biotin as substrate preincubated for 5 mins followed by substrate addition and measured after 30 to 60 mins in presence of ATP by HTRF assay relative to control.

Data set [3] addresses Serine/threonine-protein kinase PLK3 (Homo sapiens) (UniProt Q9H4B4). Description: Inhibition of recombinant full length human GST-tagged PLK3 expressed in baculovirus expression system at 1 uM using biotin as substrate preincubated for 5 mins followed by substrate addition and measured after 30 to 60 mins in presence of ATP by HTRF assay relative to control.
Data set [4] deals with Ephrin type-B receptor 4 (Homo sapiens) (UniProt P54760). Description: Inhibition of recombinant full length human His-tagged EPHB4 expressed in baculovirus expression system at 1 uM using biotin as substrate preincubated for 5 mins followed by substrate addition and measured after 30 to 60 mins in presence of ATP by HTRF assay relative to control.
Data set [5] in a line: Tmax in Sprague-Dawley rat at 5.0 mg/kg, ig measured for 15 min to 72 hrs by LC-MS/MS analysis. It is filed as ADME, organism-based. The conditions noted are these: in vivo, po.
For data set [6], the target named is BDNF/NT-3 growth factors receptor (Homo sapiens, UniProt Q16620). Description: Inhibition of recombinant human His-tagged TRKB catalytic domain (526 to 838 residues) expressed in baculovirus expression system at 1 uM using biotin as substrate preincubated for 5 mins followed by substrate addition and measured after 30 to 60 mins in presence of ATP by HTRF assay relative to control.

For data set [7], the target named is Aurora kinase A (Homo sapiens) (UniProt O14965). The experiment in a line: Inhibition of recombinant full length human His-tagged Aurora A expressed in baculovirus expression system at 1 uM using biotin as substrate preincubated for 5 mins followed by substrate addition and measured after 30 to 60 mins in presence of ATP by HTRF assay relative to control.
The target of data set [8] is Mast/stem cell growth factor receptor Kit (Homo sapiens) (UniProt P10721). The experiment in a line: Inhibition of recombinant human N-terminal GST-tagged c-Kit (544 to end residues) expressed in baculovirus infected Sf21 insect cells at 1 uM using biotin as substrate preincubated for 5 mins followed by substrate addition and measured after 30 to 60 mins in presence of ATP by HTRF assay relative to control.

Data set [9] has as its target Vascular endothelial growth factor receptor 3 (Homo sapiens, UniProt P35916). Description: Inhibition of recombinant human GST-tagged FLT4 catalytic domain (800 to 1297 residues) expressed in baculovirus expression system using biotin as substrate preincubated for 5 mins followed by substrate addition and measured after 30 to 60 mins in presence of ATP by HTRF assay.

The target in data set [10] is Proto-oncogene tyrosine-protein kinase Src (Homo sapiens) (UniProt P12931). The experiment in a line: Inhibition of recombinant full length human untagged SRC expressed in baculovirus expression system at 1 uM using biotin as substrate preincubated for 5 mins followed by substrate addition and measured after 30 to 60 mins in presence of ATP by HTRF assay relative to control.

For data set [11], the target named is Tyrosine-protein kinase ABL1 (Homo sapiens) (UniProt P00519). Description: Inhibition of recombinant full length human His-tagged ABL1 expressed in baculovirus expression system at 1 uM using biotin as substrate preincubated for 5 mins followed by substrate addition and measured after 30 to 60 mins in presence of ATP by HTRF assay relative to control.
Data set [12] is described as follows: Clearance in Sprague-Dawley rat at 1.0 mg/kg, iv measured for 5 min to 72 hrs by LC-MS/MS analysis. The conditions noted are these: in vivo. It is filed as ADME, organism-based.
A further data set relates to HT-29. The experiment in a line: Antiproliferative activity against human HT-29 cells at 10 uM incubated for 72 hrs by MTT assay relative to control. The conditions noted are these: HT-29, 72 h. It is filed as functional.
Another data set is filed under the species Homo sapiens. Description: Selectivity index, ratio of IC50 for purified recombinant VEGFR2 kinase domain (unknown origin) to IC50 for purified recombinant MET kinase domain (unknown origin).
The target of data set [13] is Receptor-type tyrosine-protein kinase FLT3 (Homo sapiens) (UniProt P36888). Description: Inhibition of recombinant full length human His-tagged FLT3 expressed in baculovirus expression system at 1 uM using biotin as substrate preincubated for 5 mins followed by substrate addition and measured after 30 to 60 mins in presence of ATP by HTRF assay relative to control.

Data set [14] is described as follows: Mean residence time in Sprague-Dawley rat at 5.0 mg/kg, ig measured for 15 min to 72 hrs by LC-MS/MS analysis. The class given is ADME, organism-based. The conditions noted are these: in vivo, po.
The target in data set [15] is Serine/threonine-protein kinase B-raf (Homo sapiens) (UniProt P15056). Description: Inhibition of recombinant full length human GST-tagged BRAF expressed in baculovirus expression system at 1 uM using biotin as substrate preincubated for 5 mins followed by substrate addition and measured after 30 to 60 mins in presence of ATP by HTRF assay relative to control.
A short description of another data set: in vitro. The conditions noted are these: human, liver microsomes.
A further data set deals with MKN-45. Description: Antiproliferative activity against human MKN45 cells at 10 uM incubated for 72 hrs by MTT assay relative to control. It is filed as functional. The conditions noted are these: MKN-45, 72 h. Background: Tetrazolium assays rely on reduction of a dye to a coloured formazan, in cell work by metabolically active cells.
Data set [16] concerns the target Proto-oncogene tyrosine-protein kinase ROS (Homo sapiens) (UniProt P08922). The experiment in a line: Inhibition of recombinant human GST-tagged ROS1 catalytic domain (1883 to 2347 residues) expressed in baculovirus expression system at 1 uM using biotin as substrate preincubated for 5 mins followed by substrate addition and measured after 30 to 60 mins in presence of ATP by HTRF assay relative to control.

Data set [17] is described as follows: Half life in Sprague-Dawley rat at 1.0 mg/kg, iv measured for 5 min to 72 hrs by LC-MS/MS analysis. It is filed as ADME, organism-based. The conditions noted are these: in vivo.
For data set [18], the target named is ALK tyrosine kinase receptor (Homo sapiens) (UniProt Q9UM73). Description: Inhibition of human GST-tagged ALK cytoplasmic domain (1060 to end residues) expressed in sf9 cells at 1 uM using biotin as substrate preincubated for 5 mins followed by substrate addition and measured after 30 to 60 mins in presence of ATP by HTRF assay relative to control.
The target of data set [19] is Tyrosine-protein kinase receptor TYRO3 (Homo sapiens) (UniProt Q06418). Description: Inhibition of recombinant human GST-tagged RSE catalytic domain (451 to 890 residues) expressed in baculovirus expression system at 1 uM using biotin as substrate preincubated for 5 mins followed by substrate addition and measured after 30 to 60 mins in presence of ATP by HTRF assay relative to control.

Data set [20] addresses Serine/threonine-protein kinase pim-1 (Homo sapiens) (UniProt P11309). Description: Inhibition of recombinant full length human His-tagged PIM1 expressed in baculovirus expression system at 1 uM using biotin as substrate preincubated for 5 mins followed by substrate addition and measured after 30 to 60 mins in presence of ATP by HTRF assay relative to control.

Tyrosine-protein kinase receptor TYRO3 (Homo sapiens), sequence (Q06418 whole entry, the tested form may be a part): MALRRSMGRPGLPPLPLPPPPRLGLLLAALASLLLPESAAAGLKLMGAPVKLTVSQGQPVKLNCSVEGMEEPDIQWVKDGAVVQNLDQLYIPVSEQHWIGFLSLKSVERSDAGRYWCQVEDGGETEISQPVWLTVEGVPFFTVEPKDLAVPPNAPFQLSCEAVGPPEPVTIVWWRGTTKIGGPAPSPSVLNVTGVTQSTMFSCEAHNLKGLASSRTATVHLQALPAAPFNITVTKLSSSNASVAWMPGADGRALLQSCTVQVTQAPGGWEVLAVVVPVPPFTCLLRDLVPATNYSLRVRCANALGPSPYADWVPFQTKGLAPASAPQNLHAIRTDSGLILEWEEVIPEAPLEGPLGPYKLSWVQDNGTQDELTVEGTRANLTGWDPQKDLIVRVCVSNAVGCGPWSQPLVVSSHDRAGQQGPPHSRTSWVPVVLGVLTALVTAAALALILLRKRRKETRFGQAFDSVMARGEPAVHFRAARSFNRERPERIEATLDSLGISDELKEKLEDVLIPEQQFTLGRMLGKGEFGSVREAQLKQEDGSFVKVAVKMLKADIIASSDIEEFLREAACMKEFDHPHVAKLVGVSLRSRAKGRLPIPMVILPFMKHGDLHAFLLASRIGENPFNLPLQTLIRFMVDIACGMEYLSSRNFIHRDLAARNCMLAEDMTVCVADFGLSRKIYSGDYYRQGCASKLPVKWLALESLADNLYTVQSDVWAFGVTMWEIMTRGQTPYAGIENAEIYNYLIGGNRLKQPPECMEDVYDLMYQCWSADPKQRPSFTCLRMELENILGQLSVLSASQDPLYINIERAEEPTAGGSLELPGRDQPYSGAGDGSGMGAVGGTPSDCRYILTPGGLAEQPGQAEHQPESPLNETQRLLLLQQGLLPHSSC
Proto-oncogene tyrosine-protein kinase Src (Homo sapiens), sequence (P12931 2-536 limits assumed): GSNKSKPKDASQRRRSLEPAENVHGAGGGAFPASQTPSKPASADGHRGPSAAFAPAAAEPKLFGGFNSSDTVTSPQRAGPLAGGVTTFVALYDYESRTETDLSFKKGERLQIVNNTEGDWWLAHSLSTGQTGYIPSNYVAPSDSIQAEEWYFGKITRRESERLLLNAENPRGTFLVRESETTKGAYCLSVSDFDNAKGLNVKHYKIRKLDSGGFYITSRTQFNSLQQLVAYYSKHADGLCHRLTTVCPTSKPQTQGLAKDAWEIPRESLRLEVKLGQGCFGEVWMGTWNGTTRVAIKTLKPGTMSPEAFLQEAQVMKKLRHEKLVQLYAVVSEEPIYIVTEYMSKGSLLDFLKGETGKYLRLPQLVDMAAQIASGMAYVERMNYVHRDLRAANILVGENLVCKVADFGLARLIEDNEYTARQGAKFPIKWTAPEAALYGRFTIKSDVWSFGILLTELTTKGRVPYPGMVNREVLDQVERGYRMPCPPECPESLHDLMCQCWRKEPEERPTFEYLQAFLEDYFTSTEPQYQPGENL
Ephrin type-B receptor 4 (Homo sapiens), sequence (P54760 whole entry): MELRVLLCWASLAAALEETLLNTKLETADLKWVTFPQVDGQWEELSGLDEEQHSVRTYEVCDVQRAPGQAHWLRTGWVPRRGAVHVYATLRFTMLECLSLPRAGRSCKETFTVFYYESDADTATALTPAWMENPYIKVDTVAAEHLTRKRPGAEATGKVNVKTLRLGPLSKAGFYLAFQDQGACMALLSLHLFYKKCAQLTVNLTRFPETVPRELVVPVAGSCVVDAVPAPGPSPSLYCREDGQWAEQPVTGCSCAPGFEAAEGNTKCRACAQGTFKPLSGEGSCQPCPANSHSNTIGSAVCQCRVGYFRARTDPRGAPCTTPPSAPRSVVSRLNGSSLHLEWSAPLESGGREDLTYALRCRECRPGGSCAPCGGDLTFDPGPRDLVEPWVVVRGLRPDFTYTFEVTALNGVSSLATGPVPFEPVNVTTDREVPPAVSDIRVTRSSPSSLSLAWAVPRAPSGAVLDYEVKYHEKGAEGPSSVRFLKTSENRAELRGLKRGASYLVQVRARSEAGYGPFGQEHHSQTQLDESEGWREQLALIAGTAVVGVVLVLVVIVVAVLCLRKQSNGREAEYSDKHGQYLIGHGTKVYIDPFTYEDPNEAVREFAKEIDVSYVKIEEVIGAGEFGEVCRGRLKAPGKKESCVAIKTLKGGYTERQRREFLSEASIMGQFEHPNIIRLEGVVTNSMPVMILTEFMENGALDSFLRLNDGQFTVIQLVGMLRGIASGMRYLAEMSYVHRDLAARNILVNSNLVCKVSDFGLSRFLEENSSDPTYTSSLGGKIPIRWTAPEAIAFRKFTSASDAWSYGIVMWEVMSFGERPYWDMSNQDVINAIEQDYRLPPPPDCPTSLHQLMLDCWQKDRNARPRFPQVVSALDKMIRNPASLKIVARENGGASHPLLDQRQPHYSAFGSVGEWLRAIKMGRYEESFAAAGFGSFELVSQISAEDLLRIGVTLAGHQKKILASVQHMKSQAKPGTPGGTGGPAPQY
Serine/threonine-protein kinase pim-1 (Homo sapiens), sequence (P11309 whole entry, looked up): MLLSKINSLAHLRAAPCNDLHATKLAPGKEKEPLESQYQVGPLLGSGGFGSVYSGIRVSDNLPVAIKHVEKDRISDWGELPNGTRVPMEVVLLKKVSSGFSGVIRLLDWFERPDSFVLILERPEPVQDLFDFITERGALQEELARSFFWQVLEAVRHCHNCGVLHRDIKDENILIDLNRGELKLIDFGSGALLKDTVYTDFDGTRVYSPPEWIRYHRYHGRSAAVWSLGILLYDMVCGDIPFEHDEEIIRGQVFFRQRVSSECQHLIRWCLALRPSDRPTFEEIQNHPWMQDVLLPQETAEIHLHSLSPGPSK
ALK tyrosine kinase receptor (Homo sapiens), sequence (Q9UM73 19-1620 limits assumed): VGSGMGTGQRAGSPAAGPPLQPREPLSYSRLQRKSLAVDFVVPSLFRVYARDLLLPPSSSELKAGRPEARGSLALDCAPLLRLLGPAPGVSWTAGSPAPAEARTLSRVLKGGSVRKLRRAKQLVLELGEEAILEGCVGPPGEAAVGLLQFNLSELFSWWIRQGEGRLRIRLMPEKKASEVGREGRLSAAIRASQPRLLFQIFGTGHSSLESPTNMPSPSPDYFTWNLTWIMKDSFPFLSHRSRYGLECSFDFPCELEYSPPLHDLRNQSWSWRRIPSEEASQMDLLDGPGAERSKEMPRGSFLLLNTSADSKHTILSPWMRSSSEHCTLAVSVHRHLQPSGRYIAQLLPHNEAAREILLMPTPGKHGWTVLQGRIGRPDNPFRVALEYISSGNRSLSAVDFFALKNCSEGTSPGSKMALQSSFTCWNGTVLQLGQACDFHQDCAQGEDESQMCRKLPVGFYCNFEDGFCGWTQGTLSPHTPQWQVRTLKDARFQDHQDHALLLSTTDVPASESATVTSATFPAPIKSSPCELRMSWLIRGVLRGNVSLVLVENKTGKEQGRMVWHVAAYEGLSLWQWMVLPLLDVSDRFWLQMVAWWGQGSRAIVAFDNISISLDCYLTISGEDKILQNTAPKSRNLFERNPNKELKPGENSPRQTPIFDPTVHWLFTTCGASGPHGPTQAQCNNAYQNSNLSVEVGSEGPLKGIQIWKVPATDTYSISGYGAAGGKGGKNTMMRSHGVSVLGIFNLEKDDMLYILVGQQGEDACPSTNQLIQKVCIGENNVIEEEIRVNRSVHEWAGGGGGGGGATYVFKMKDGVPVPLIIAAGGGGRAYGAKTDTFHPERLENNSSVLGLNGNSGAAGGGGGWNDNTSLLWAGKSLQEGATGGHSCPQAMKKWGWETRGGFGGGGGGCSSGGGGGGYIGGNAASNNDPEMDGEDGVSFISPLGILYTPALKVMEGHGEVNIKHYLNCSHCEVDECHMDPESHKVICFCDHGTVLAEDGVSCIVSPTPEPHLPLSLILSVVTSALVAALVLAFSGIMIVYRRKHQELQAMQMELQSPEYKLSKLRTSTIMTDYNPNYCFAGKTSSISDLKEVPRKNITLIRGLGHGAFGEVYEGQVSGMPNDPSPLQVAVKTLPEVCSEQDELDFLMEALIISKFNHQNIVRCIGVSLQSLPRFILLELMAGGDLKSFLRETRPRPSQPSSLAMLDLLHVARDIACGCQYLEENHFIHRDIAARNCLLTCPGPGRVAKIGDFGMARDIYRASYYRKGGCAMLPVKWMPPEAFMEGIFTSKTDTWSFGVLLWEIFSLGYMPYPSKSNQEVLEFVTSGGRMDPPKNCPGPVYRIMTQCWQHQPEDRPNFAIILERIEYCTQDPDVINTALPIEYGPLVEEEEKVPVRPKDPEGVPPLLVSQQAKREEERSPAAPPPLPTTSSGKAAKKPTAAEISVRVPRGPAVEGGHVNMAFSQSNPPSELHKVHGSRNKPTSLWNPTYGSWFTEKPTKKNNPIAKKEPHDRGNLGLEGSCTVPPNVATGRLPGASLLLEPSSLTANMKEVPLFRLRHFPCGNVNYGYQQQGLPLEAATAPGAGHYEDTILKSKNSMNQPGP
Serine/threonine-protein kinase PLK3 (Homo sapiens), sequence (Q9H4B4 whole entry, looked up): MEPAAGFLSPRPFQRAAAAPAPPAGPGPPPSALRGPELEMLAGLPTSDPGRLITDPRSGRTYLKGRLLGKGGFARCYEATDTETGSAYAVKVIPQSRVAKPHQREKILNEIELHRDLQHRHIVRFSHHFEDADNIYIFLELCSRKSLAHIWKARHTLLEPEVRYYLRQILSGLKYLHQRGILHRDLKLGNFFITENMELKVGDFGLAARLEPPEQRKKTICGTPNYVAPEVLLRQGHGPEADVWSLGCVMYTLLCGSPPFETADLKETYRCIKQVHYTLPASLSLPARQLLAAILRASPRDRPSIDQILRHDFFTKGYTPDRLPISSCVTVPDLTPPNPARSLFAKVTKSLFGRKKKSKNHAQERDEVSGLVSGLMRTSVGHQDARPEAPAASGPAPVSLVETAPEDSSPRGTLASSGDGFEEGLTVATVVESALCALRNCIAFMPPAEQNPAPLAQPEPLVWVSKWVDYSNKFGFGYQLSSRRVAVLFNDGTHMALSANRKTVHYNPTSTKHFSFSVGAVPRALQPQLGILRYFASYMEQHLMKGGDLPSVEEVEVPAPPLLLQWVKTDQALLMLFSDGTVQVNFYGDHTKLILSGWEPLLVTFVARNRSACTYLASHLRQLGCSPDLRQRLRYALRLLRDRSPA

The inhibition is the percentage by which the read-out fell short of the control. One may read the Tmax as the time from dosing to the highest level. In general, IC50 refers to the midpoint of a concentration-inhibition curve. One may read the clearance as the rate of elimination divided by the concentration. Read a high clearance as a high capacity for elimination. Usually MRT stands for the average time that molecules of a dose stay in the body. In general, half-life refers to the time in which the quantity being followed falls by half. A higher half-life goes with slow decline. As for `Cn1cc(-c2ccc(F)cc2)c(=O)c2c(Nc3ccc(Oc4ccnc(NC(=O)C5CC5)c4)c(F)c3)nccc21`, the inhibition in [1] is 50 to 79%; in data set [2] it was less than 50%; in data set [3], less than 50%; in [4], 50 to 79%; in [6] it was more than 80%; in [7], less than 50%. Further, the inhibition in data set [8] was less than 50%; in data set [10] it was less than 50%; in [11], less than 50%; in data set [13], more than 80%; in data set [15] it was less than 50%; in data set [16] it was less than 50%. Besides, the values for the inhibition in data set [18], in [19] and in [20] were less than 50%, more than 80% and less than 50%, respectively. Also, the Tmax in data set [5] stood at 8.7 h. In addition, in data set [9], the IC50 stood at 591 nM. Also, the clearance in data set [12] is 0.167 mL/min/kg. The inhibition at 10 µM in the data set with HT-29 turned out to be 24.8%; with MKN-45, 30.9%. Also, the Ratio IC50 in the data set listed under Homo sapiens is 3230. Besides, the mean residence time (MRT) in data set [14] amounted to 32.4 h. The figures for the half-life (in the data set “in vitro”; in [17]) were 14.7 h and 25.4 h, respectively.

(Values after ChEMBL document CHEMBL4373740, “Synthesis and biological evaluation of new MET inhibitors with 1,6-naphthyridinone scaffold” (Eur J Med Chem, 2020).)
